According to publication PMC12153338, “Resistance to oxyimino-cephalosporins conferred by an alternative mechanism of hydrolysis by the Acinetobacter-derived cephalosporinase-33 (ADC-33), a class C β-lactamase present in carbapenem-resistant Acinetobacter baumannii (CRAb)” (mBio, 2025):
Values after ≈ are worked out from the molar mass of the structure shown.

Experiments:
[1] = system: ADC-30 in DH10B Escherichia coli; test: MIC by broth microdilution, ADC-30 in DH10B E. coli; assay type: cell-based; settings: DH10B E. coli expressing ADC-30 (non-Adup) from pBCSK−, FDC in iron-depleted cation-adjusted MH broth, mode of triplicate
Description: (§1) Susceptibility testing to standard antibiotics was performed by broth microdilution according to 2024 Clinical and Laboratory Standards Institute (CLSI) guidelines ([38]). MICs for FDC were done in iron-depleted cation-adjusted Mueller-Hinton (MH) broth according to CLSI methods. All MICs were interpreted according to the 2024 CLSI guidelines ([38]). MICs are done in triplicate, and the mode MIC value is reported.
(§2) blaADC-7 pBCSK− was cloned and expressed in E. coli DH10B cells as previously described for MIC determinations ([3]). The pBCSK-non-inducible phagemid vector has a chloramphenicol resistance gene used to aid selection. All other blaADC variants were synthesized by GenScript according to the blaADC-7 pBCSK− strategy, cloning into the XbaI/BamHI sites of the pBCSK− vector ([5]).

[2] = system: ADC-73 in DH10B Escherichia coli; test: MIC by broth microdilution, ADC-73 in DH10B E. coli; assay type: cell-based; settings: DH10B E. coli expressing ADC-73 (non-Adup) from pBCSK−, FDC in iron-depleted cation-adjusted MH broth, mode of triplicate
Description: as §1, §2

[3] = system: ADC-143 in DH10B Escherichia coli; test: MIC by broth microdilution, ADC-143 in DH10B E. coli; assay type: cell-based; settings: DH10B E. coli expressing ADC-143 (non-Adup) from pBCSK−, FDC in iron-depleted cation-adjusted MH broth, mode of triplicate
Description: as §1, §2

[4] = system: ADC-218 in DH10B Escherichia coli; test: MIC by broth microdilution, ADC-218 in DH10B E. coli; assay type: cell-based; settings: DH10B E. coli expressing ADC-218 (Adup) from pBCSK−, FDC in iron-depleted cation-adjusted MH broth, mode of triplicate
Description: as §1, §2

ADC-172 = ADC-172 (Acinetobacter baumannii, UniProt A7Y407, N321K); test: Competition kinetics with nitrocefin (Ki), ADC-172; assay type: biochemical; settings: 3 min pre-incubation, Cheng-Prusoff corrected
Description: For inhibition kinetics, utilizing NCF as a colorimetric substrate of ADCs, the inhibition constant (Ki) of CAZ and FDC with ADCs was determined using competition kinetics as previously described ([5]). After a 3 min pre-incubation of the enzyme (2 nM) with increasing concentration of the inhibitor, measurements of the initial velocities were performed with the addition of 100–200 µM NCF (twofold of the experimentally determined KM value). To determine the average velocities (v0), data from three experiments were fit to the followingequation: […]
where vu represents the NCF uninhibited velocity and IC50 represents the inhibitor concentration that results in a 50% reduction of vu. The Ki value was corrected for the NCF affinity (KM values for each ADC) with the Cheng-Prusoff ([5]) equation: […]
The standard error for Ki values was generated by factoring in the larger of the proportional standard errors for the individual IC50 value and the KM -NCF value.

ADC-30 [5] = target: T1, ADC-30 (Acinetobacter baumannii, UniProt A7XM81); test: Timed electrospray ionization mass spectrometry of acylated adducts, ADC-30; assay type: binding; settings: ADC-30, +468 Da adduct, at 1 h; enzyme:substrate 1:25
Description: β-Lactamase (5 µg) was incubated with substrate at a molar ratio of 1:25 (FDC, CAZ, meropenem [MEM]) in sterile 10 mM PBS, pH 7.4, for a total reaction volume of 20 µL (t = 30 s, 1 min, 15 min, 30 min, 1 h, 2 h, and 24 h). Reactions were quenched with 1% acetonitrile and 0.1% formic acid. Samples were analyzed using Q-TOF Waters Synapt-G2-Si and a Waters Acquity ultrapressure liquid chromatography BEH C18 column (1.7 µm […]; 2.1 × 50 mm). MassLynx v.4.1 was used to deconvolute protein peaks. The tune settings for each data run were as follows: capillary voltage at 3.5 kV, sampling cone at 35, source offset at 35, source temperature 100°C, desolvation temperature 500°C, cone gas at 100 L/h, desolvation gas at 800 L/h, and nebulizer bar at 6.0. Mobile phase A was 0.1% formic acid-water. Mobile phase B was 0.1% formic acid-acetonitrile. The mass accuracy for this system is ±5 Da. Mass spectrometry experiments were performed once over a range of time points.

ADC-30 [6] = target: T1, ADC-30; test: Thermal denaturation by circular dichroism, ADC-30; assay type: binding; settings: ADC-30 12 µM, 1 mM antibiotic, PBS pH 7.4
Description: (§3) For thermal denaturation, protein samples were monitored for helical content by circular dichroism in the far-UV region at 210 and 220 nm using a Jasco J-815 spectrometer (Easton, MD) with a Peltier-effect temperature controller, as previously described ([41]). Enzyme concentrations were 12 µM in phosphate-buffered saline (PBS) pH 7.4. The thermodynamic stability of apoADC-30 and ADC-33, and with 1 mM FDC and CAZ, was determined from equilibrium unfolding curves. With the assumption of a reversible two-state transition, we determined the Tm at the midpoint of equilibrium folding. Thermal denaturation experiments were done in duplicate under the same conditions, with each data point representing the average of three successive scans, and the Tm values are consistent with ±1°C variation.

ADC-33 [7] = target: T2, ADC-33 (Acinetobacter baumannii, UniProt A7Y407); test: Thermal denaturation by circular dichroism, ADC-33; assay type: binding; settings: ADC-33 12 µM, 1 mM antibiotic, PBS pH 7.4
Description: as §3

[8] = system: ADC variants in DH10B Escherichia coli; test: MIC, statements across ADC variants in E. coli; assay type: cell-based
Description: as §1, §2

ADC-33 [9] = target: T2, ADC-33; settings: hydrolysis by ADC-33; previously determined; cited from earlier work

CC(C)(O/N=C(\C(=O)N[C@@H]1C(=O)N2C(C(=O)[O-])=C(C[n+]3ccccc3)CS[C@H]12)c1csc(N)n1)C(=O)O [CAZ, ceftazidime]
MIC [1]: 64 mg/L (≈ 117 µM)
MIC [2]: 64 mg/L (≈ 117 µM)
MIC [3]: 256 mg/L (≈ 468 µM)
MIC [4]: 2050 mg/L (≈ 3750 µM)
Ki (ADC-172): 12.7 ± 1.45 µM
percentage of acylated adduct (ADC-30 [5]): 20%
change of Tm of the β-lactamase on addition of antibiotic (ADC-30 [6]): does not alter the Tm
change of Tm of the β-lactamase on addition of antibiotic (ADC-33 [7]): does not alter the Tm
MIC [8]: ≥ 1020 mg/L
kcat (ADC-33 [9]): 3.71 s⁻¹
